Results published in the NIST ThermoML archive (doi:10.1021/je900691n).

Assay: xn = mol fraction of the nth substance listed
Conditions: Liquid, Pycnometric method

COC(=O)OC [dimethyl carbonate] + O=C=O
Conditions	mass density [kg/m3]
323.15 K, 9620 kPa, x1 = 0.0242	495
323.15 K, 9710 kPa, x1 = 0.0242	509
323.15 K, 9740 kPa, x1 = 0.118	852
323.15 K, 9750 kPa, x1 = 0.0481	666
323.15 K, 9760 kPa, x1 = 0.086	792
323.15 K, 9760 kPa, x1 = 0.1484	883
323.15 K, 9800 kPa, x1 = 0.0242	523
323.15 K, 9900 kPa, x1 = 0.0242	536
323.15 K, 9930 kPa, x1 = 0.0242	541
323.15 K, 10010 kPa, x1 = 0.0481	683
323.15 K, 10220 kPa, x1 = 0.118	859
323.15 K, 10280 kPa, x1 = 0.086	803
323.15 K, 10280 kPa, x1 = 0.1484	888
323.15 K, 10350 kPa, x1 = 0.0481	700
323.15 K, 10740 kPa, x1 = 0.086	813
323.15 K, 10740 kPa, x1 = 0.118	866
323.15 K, 10740 kPa, x1 = 0.1484	893
323.15 K, 10780 kPa, x1 = 0.0481	719
323.15 K, 11230 kPa, x1 = 0.086	822
323.15 K, 11230 kPa, x1 = 0.118	872
323.15 K, 11230 kPa, x1 = 0.1484	897
323.15 K, 11360 kPa, x1 = 0.0481	739
323.15 K, 11670 kPa, x1 = 0.086	829
323.15 K, 11750 kPa, x1 = 0.118	878
323.15 K, 11760 kPa, x1 = 0.1484	901
323.15 K, 11870 kPa, x1 = 0.0481	754
323.15 K, 12240 kPa, x1 = 0.1484	905
323.15 K, 12270 kPa, x1 = 0.118	883
323.15 K, 12310 kPa, x1 = 0.086	839
323.15 K, 12390 kPa, x1 = 0.0481	768
323.15 K, 12740 kPa, x1 = 0.086	844
323.15 K, 12750 kPa, x1 = 0.118	888
323.15 K, 12770 kPa, x1 = 0.1484	910
323.15 K, 12920 kPa, x1 = 0.0481	780
323.15 K, 13190 kPa, x1 = 0.086	851
323.15 K, 13260 kPa, x1 = 0.1484	913
323.15 K, 13310 kPa, x1 = 0.118	894
323.15 K, 13550 kPa, x1 = 0.0481	792
323.15 K, 13740 kPa, x1 = 0.086	857
323.15 K, 13760 kPa, x1 = 0.1484	918
323.15 K, 13830 kPa, x1 = 0.118	898
323.15 K, 14230 kPa, x1 = 0.086	863
323.15 K, 14270 kPa, x1 = 0.118	902
323.15 K, 14330 kPa, x1 = 0.1484	922
323.15 K, 14730 kPa, x1 = 0.086	868
323.15 K, 14750 kPa, x1 = 0.118	907
323.15 K, 14820 kPa, x1 = 0.1484	925
323.15 K, 15220 kPa, x1 = 0.086	873
323.15 K, 15250 kPa, x1 = 0.118	911
323.15 K, 15510 kPa, x1 = 0.1484	930
323.15 K, 15660 kPa, x1 = 0.086	878
323.15 K, 15740 kPa, x1 = 0.118	914
323.15 K, 16130 kPa, x1 = 0.086	883
323.15 K, 16420 kPa, x1 = 0.1484	936
323.15 K, 16430 kPa, x1 = 0.118	920
327.95 K, 8540 kPa, x1 = 0.1484	839
327.95 K, 8840 kPa, x1 = 0.1484	844
327.95 K, 8920 kPa, x1 = 0.118	801
327.95 K, 9150 kPa, x1 = 0.0242	333
327.95 K, 9160 kPa, x1 = 0.118	806
327.95 K, 9180 kPa, x1 = 0.0242	337
327.95 K, 9250 kPa, x1 = 0.0242	344
327.95 K, 9290 kPa, x1 = 0.1484	850
327.95 K, 9320 kPa, x1 = 0.0242	352
327.95 K, 9320 kPa, x1 = 0.086	724
327.95 K, 9400 kPa, x1 = 0.0242	359
327.95 K, 9470 kPa, x1 = 0.0242	369
327.95 K, 9470 kPa, x1 = 0.118	812
327.95 K, 9540 kPa, x1 = 0.0242	378
327.95 K, 9620 kPa, x1 = 0.0242	387
327.95 K, 9690 kPa, x1 = 0.0242	397
327.95 K, 9720 kPa, x1 = 0.086	740
327.95 K, 9750 kPa, x1 = 0.1484	856
327.95 K, 9760 kPa, x1 = 0.118	818
327.95 K, 9770 kPa, x1 = 0.0242	407
327.95 K, 9860 kPa, x1 = 0.0242	418
327.95 K, 9950 kPa, x1 = 0.0242	430
327.95 K, 9990 kPa, x1 = 0.086	750
327.95 K, 10040 kPa, x1 = 0.0242	442
327.95 K, 10120 kPa, x1 = 0.0242	453
327.95 K, 10240 kPa, x1 = 0.118	827
327.95 K, 10240 kPa, x1 = 0.1484	862
327.95 K, 10400 kPa, x1 = 0.086	762
327.95 K, 10740 kPa, x1 = 0.086	772
327.95 K, 10740 kPa, x1 = 0.118	835
327.95 K, 10770 kPa, x1 = 0.1484	868
327.95 K, 11180 kPa, x1 = 0.086	782
327.95 K, 11220 kPa, x1 = 0.118	842
327.95 K, 11260 kPa, x1 = 0.1484	873
327.95 K, 11650 kPa, x1 = 0.086	792
327.95 K, 11720 kPa, x1 = 0.118	849
327.95 K, 11760 kPa, x1 = 0.1484	878
327.95 K, 12200 kPa, x1 = 0.118	855
327.95 K, 12210 kPa, x1 = 0.086	802
327.95 K, 12260 kPa, x1 = 0.1484	883
327.95 K, 12680 kPa, x1 = 0.118	861
327.95 K, 12750 kPa, x1 = 0.086	812
327.95 K, 12800 kPa, x1 = 0.1484	888
327.95 K, 13200 kPa, x1 = 0.086	819
327.95 K, 13310 kPa, x1 = 0.1484	893
327.95 K, 13320 kPa, x1 = 0.118	868
327.95 K, 13680 kPa, x1 = 0.086	826
327.95 K, 13780 kPa, x1 = 0.118	873
327.95 K, 13800 kPa, x1 = 0.1484	897
327.95 K, 14170 kPa, x1 = 0.086	833
327.95 K, 14240 kPa, x1 = 0.1484	901
327.95 K, 14310 kPa, x1 = 0.118	879
327.95 K, 14710 kPa, x1 = 0.086	840
327.95 K, 14780 kPa, x1 = 0.1484	905
327.95 K, 14800 kPa, x1 = 0.118	884
327.95 K, 15160 kPa, x1 = 0.086	846
327.95 K, 15260 kPa, x1 = 0.118	888
327.95 K, 15300 kPa, x1 = 0.1484	909
327.95 K, 15660 kPa, x1 = 0.086	852
327.95 K, 15740 kPa, x1 = 0.118	892
327.95 K, 15860 kPa, x1 = 0.1484	913
327.95 K, 16180 kPa, x1 = 0.086	858
327.95 K, 16330 kPa, x1 = 0.118	897
327.95 K, 16560 kPa, x1 = 0.1484	918
328.15 K, 9640 kPa, x1 = 0.0481	532
328.15 K, 9710 kPa, x1 = 0.0481	543
328.15 K, 9800 kPa, x1 = 0.0481	556
328.15 K, 9910 kPa, x1 = 0.0481	570
328.15 K, 10030 kPa, x1 = 0.0481	585
328.15 K, 10180 kPa, x1 = 0.0481	600
328.15 K, 10340 kPa, x1 = 0.0481	615
328.15 K, 10540 kPa, x1 = 0.0481	632
328.15 K, 10720 kPa, x1 = 0.0481	645
328.15 K, 10940 kPa, x1 = 0.0481	659
328.15 K, 11190 kPa, x1 = 0.0481	673
328.15 K, 11350 kPa, x1 = 0.0481	681
332.85 K, 9040 kPa, x1 = 0.0242	282
332.85 K, 9110 kPa, x1 = 0.0242	287
332.85 K, 9180 kPa, x1 = 0.1484	814
332.85 K, 9200 kPa, x1 = 0.0242	292
332.85 K, 9270 kPa, x1 = 0.0242	298
332.85 K, 9350 kPa, x1 = 0.0242	305
332.85 K, 9430 kPa, x1 = 0.0242	311
332.85 K, 9520 kPa, x1 = 0.0242	318
332.85 K, 9620 kPa, x1 = 0.118	768
332.85 K, 9620 kPa, x1 = 0.1484	821
332.85 K, 9640 kPa, x1 = 0.0242	329
332.85 K, 9720 kPa, x1 = 0.0242	336
332.85 K, 9810 kPa, x1 = 0.0242	344
